Test results: US9393221B2, “Methods and compounds for reducing intracellular lipid storage” (THE GENERAL HOSPITAL CORPORATION, priority 2011, dated 2016)
Structures can show the parent of a compound that is named as a salt.
Wherever Z-score is given: test concentration or dose not given here.

These compounds were tested on ATGL-KO iPSCs (assay: High throughput iPSC chemical screening, Oil Red O (ORO) lipid accumulation). Conditions: not given.
Format: cell-based, mouse
`Cc1c(C)c2c(c(C)c1O)CC[C@@](C)(CCC[C@H](C)CCC[C@H](C)CCCC(C)C)O2` [Tocopherol (R,S)] was tested, and the Z-score was −1.721. Compound `C[C@]12CC[C@@H](O)C[C@@H]1CC[C@@H]1[C@@H]2CC[C@]2(C)C(=O)CC[C@@H]12` [Androsterone] has a Z-score of 1.156.

Same assay, conditions: glycolytic switch compounds
With `C#C[C@]1(OC(C)=O)CC[C@H]2[C@@H]3CCC4=C[C@@H](OC(C)=O)CC[C@@H]4[C@H]3CC[C@@]21C` [Ethynodiol diacetate] the “Rank in normalized ORO score from screen” value was 61. `CC(=O)Oc1ccc(C(c2ccc(OC(C)=O)cc2)c2ccccn2)cc1` [Bisacodyl] was tested, and the “Rank in normalized ORO score from screen” value was 791.

Same assay, conditions: normalized ORO level vs DMSO-treated cells; compound present during 7 days differentiation, 96-well; negative = decrease in lipid accumulation
With `CC(=O)N(CC(O)CO)c1c(I)c(C(=O)NCC(O)CO)c(I)c(C(=O)NCC(O)CO)c1I` (centres unmarked) [Iohexol] the Z-score was −1.1016. With Foliosidine the Z-score was −0.7349. `Cc1cc(N)c2ccccc2[n+]1CCCCCCCCCC[n+]1c(C)cc(N)c2ccccc21` [Dequalinium dichloride] was tested, and the Z-score was 42.6725. `CCCCNC(=O)NS(=O)(=O)c1ccc(C)cc1` [Tolbutamide] was tested, and the Z-score was −0.8086. `C#C[C@]1(OC(C)=O)CC[C@H]2[C@@H]3CCC4=C[C@@H](OC(C)=O)CC[C@@H]4[C@H]3CC[C@@]21C` [Ethynodiol diacetate] gave a Z-score of −1.4458. Compound `CC(=O)N[C@@H](CC(=O)N[C@@H](CCC(=O)O)C(=O)O)C(=O)O` [Spaglumic acid] has a Z-score of 0.9666. `CCn1cc(C(=O)O)c(=O)c2cnc(N3CCNCC3)nc21` [Pipemidic acid] was tested, and the Z-score was −1.4165. `O=C(O)CNC(=O)C(CS)Cc1ccccc1` (centres unmarked) [Thiorphan] showed a Z-score of 1.245. `Clc1ccc(CCC(Cn2ccnc2)Sc2c(Cl)cccc2Cl)cc1` (centres unmarked) [Butoconazole nitrate] gave a Z-score of −0.4077. For `Cl.Cl.c1ccc2c3c([nH]c2c1)C1C2CCC(C4CCCNC42)N1CC3` (centres unmarked) [Nitrarine dihydrochloride], the Z-score was −0.8582. Compound `CC[C@H]1CN2CCc3cc(OC)c(OC)cc3[C@@H]2C[C@@H]1C[C@H]1NCCc2cc(OC)c(OC)cc21` [Emetine dihydrochloride] has a Z-score of 32.7653. Work on `OCCN1CCN(CC/C=C2/c3ccccc3Sc3ccc(Cl)cc32)CC1` [Zuclopenthixol hydrochloride] yielded a Z-score of −1.8038. With Deptropine citrate the Z-score was −0.0889. `CC(C)[N+]1(C)[C@@H]2CC[C@H]1CC(OC(=O)C(CO)c1ccccc1)C2.[Br-]` (some centres unmarked) [Ipratropium bromide] gave a Z-score of −0.1032. `COc1ccccc1N1CCN(CC(O)COc2cccc3ccccc23)CC1` (centres unmarked) [Naftopidil dihydrochloride] showed a Z-score of −0.9212. For `CC1=CC(=O)C2=C(C)CC[C@@H]3[C@H](OC(=O)[C@H]3C)[C@@H]12` [Leucomisine], the Z-score was −0.2458. Work on `CC(=O)N1CCN(c2ccc(OCC3COC(Cn4ccnc4)(c4ccc(Cl)cc4Cl)O3)cc2)CC1` (centres unmarked) [Ketoconazole] yielded a Z-score of 1.224. `CNC[C@H](O)[C@@H](O)[C@H](O)[C@H](O)CO` [Meglumine] gave a Z-score of −1.1536. Compound Viomycin sulfate has a Z-score of 1.64. With `CN1CCC(=C2c3ccccc3CC(=O)c3sccc32)CC1` [Ketotifen fumarate] the Z-score was 0.5681. For `c1cnc(N2CCN(Cc3ccc4c(c3)OCO4)CC2)nc1` [Piribedil hydrochloride], the Z-score was −1.3522. `C#C[C@]1(O)CC[C@H]2[C@@H]3CCC4=Cc5oncc5C[C@]4(C)[C@H]3CC[C@@]21C` [Danazol] was tested, and the Z-score was −1.2973. Compound `CCOc1ccc2c(c1)C(C)=CC(C)(C)N2` [Ethoxyquin] has a Z-score of −0.0471. Compound `CCCCNc1ccc(C(=O)OCCN(C)C)cc1.Cl` [TetracaOne hydrochloride] has a Z-score of −0.5979. With `CCc1nc(N)nc(N)c1-c1ccc(Cl)cc1` [Pyrimethamine] the Z-score was 2.959. `CC1CS(=O)(=O)CCN1/N=C/c1ccc([N+](=O)[O-])o1` (centres unmarked) [Nifurtimox] was tested, and the Z-score was 0.2485. With `CC[N+]1(C)CCCC(OC(=O)C(O)(c2ccccc2)c2ccccc2)C1` (centres unmarked) [Pipenzolate bromide] the Z-score was −1.06. Work on `O=S(=O)(O)c1cc(O)ccc1O` [Ethamsylate] yielded a Z-score of 0.04738. For `CN(C)CCC(c1ccccc1)c1ccccn1` (centres unmarked) [Pheniramine maleate], the Z-score was 0.3153. In the case of `CCN(CC)Cc1cc(Nc2ccnc3cc(Cl)ccc23)ccc1O` [Amodiaquin dihydrochloride dihydrate], the Z-score is reported as 0.3315. In the case of `O=C(O)c1cccnc1` [Niacin], the Z-score is reported as −0.8285. `C[C@@H]1CCC[C@H](C)N1NC(=O)c1ccc(Cl)c(S(N)(=O)=O)c1` [Clopamide] was tested, and the Z-score was −0.9945. In the case of `COc1ncnc(NS(=O)(=O)c2ccc(N)cc2)c1OC` [Sulfadoxine], the Z-score is reported as −0.1202. For `CCC1(c2cccc(O)c2)CCCCN(C)C1` (centres unmarked) [Meptazinol hydrochloride], the Z-score was −1.0631. In the case of `NS(=O)(=O)c1cc2c(cc1Cl)NCNS2(=O)=O` [Hydrochlorothiazide], the Z-score is reported as 1.18. Work on `CC(=O)Oc1cc(C(F)(F)F)ccc1C(=O)O` [Triflusal] yielded a Z-score of −1.2041. Compound `CC[C@H]1CN2CCc3cc(OC)c(OC)cc3[C@@H]2C[C@@H]1C[C@H]1NCCc2cc(O)c(OC)cc21.Cl.Cl.O.O.O.O.O.O.O` [Cephaeline dihydrochloride heptahydrate] has a Z-score of 26.5614. With `Cn1c([N+](=O)[O-])cnc1COC(N)=O` [Ronidazole] the Z-score was 1.5256. In the case of `O=C1NCCN1c1ncc([N+](=O)[O-])s1` [Niridazole], the Z-score is reported as 1.446. With `Cn1nnnc1SCC1=C(C(=O)O)N2C(=O)[C@@H](NC(=O)[C@H](O)c3ccccc3)[C@H]2SC1` [Cefamandole sodium salt] the Z-score was −0.5703. With `CCN(CC)CC(=O)Nc1c(C)cccc1C.Cl` [LidocaOne hydrochloride] the Z-score was −0.9429. Compound Mephentermine hemisulfate has a Z-score of 0.04889. Work on `C[C@]1(OC(=O)/C=C/c2ccccc2)C[C@@H](O)[C@]2(O)C=CO[C@@H](O[C@@H]3O[C@H](CO)[C@@H](O)[C@H](O)[C@H]3O)[C@@H]21` [Harpagoside] yielded a Z-score of −1.174. `C[N+]12CCC(CC1)C(OC(=O)C(O)(c1ccccc1)c1ccccc1)C2` (centres unmarked) [Clidinium bromide, reference compound] showed a Z-score of −1.8548. `COC(=O)Nc1nc2ccc(C(=O)c3ccccc3)cc2[nH]1` [Mebendazole] showed a Z-score of 49.935. `CC1CC(OC(=O)C(O)c2ccccc2)CC(C)(C)N1C` (centres unmarked) [Eucatropine hydrochloride] was tested, and the Z-score was 0.9133. With `C[C@H](N)[C@H](O)c1ccc(O)c(O)c1` [Levonordefrin] the Z-score was −0.1555. Compound `CC(=O)O[C@H]1C[C@H](O[C@H]2[C@@H](O)C[C@H](O[C@H]3[C@@H](O)C[C@H](O[C@H]4CC[C@@]5(C)[C@H](CC[C@@H]6[C@@H]5C[C@@H](O)[C@]5(C)[C@@H](C7=CC(=O)OC7)CC[C@]65O)C4)O[C@@H]3C)O[C@@H]2C)O[C@H](C)[C@H]1O[C@@H]1O[C@H](CO)[C@@H](O)[C@H](O)[C@H]1O` [Lanatoside C] has a Z-score of −1.0291. For `CC(=O)N(O)CCCCCNC(=O)CCC(=O)N(O)CCCCCNC(=O)CCC(=O)N(O)CCCCCN` [Deferoxamine mesylate], the Z-score was 12.8786. Work on `C=C(C)[C@@H]1[C@H]2OC(=O)[C@@H]1[C@]1(O)C[C@H]3O[C@]34C(=O)O[C@H]2[C@]14C` [Picrotoxinin] yielded a Z-score of −0.1703. Work on `NC[C@H]1CC[C@H](C(=O)O)CC1` [Tranexamic acid] yielded a Z-score of 0.05824. `CCn1cc(C(=O)O)c(=O)c2cc3c(cc21)OCO3` [Oxolinic acid] gave a Z-score of −1.0488. Compound `NCC(CC(=O)O)c1ccc(Cl)cc1` (racemic) [Baclofen (R,S)] has a Z-score of 0.07861. `C[C@]12C[C@H]3S[C@H]3C[C@@H]1CC[C@@H]1[C@@H]2CC[C@]2(C)[C@@H](O)CC[C@@H]12` [Epitiostanol] was tested, and the Z-score was −1.7564. Work on `C[N+]1(C)CCC(OC(=O)C(O)(c2ccccc2)C2CCCC2)C1` (centres unmarked) [Glycopyrrolate] yielded a Z-score of −0.6161. `COc1cc(/C=C/C(=O)N2CCC=CC2=O)cc(OC)c1OC` [Piperlongumine] showed a Z-score of 16.6479. Work on `Cc1cc(C(C)(C)CC(C)(C)C)ccc1OCCOCC[N+](C)(C)Cc1ccccc1.[Cl-]` [Methyl benzethonium chloride] yielded a Z-score of 12.6356. `Cc1cc(NC(=O)C2=C(O)c3ccccc3S(=O)(=O)N2C)no1` [Isoxicam] showed a Z-score of −0.7646. Iproniazide phosphate showed a Z-score of −0.4106. In the case of `O=C(O)CCc1nc(-c2ccccc2)c(-c2ccccc2)o1` [Oxaprozin], the Z-score is reported as −1.009. For `CCN[C@H]1C[C@H](C)S(=O)(=O)c2sc(S(N)(=O)=O)cc21` [Dorzolamide hydrochloride], the Z-score was 1.587. `OCc1cc(C(O)CNCCCCCCOCCCCc2ccccc2)ccc1O` (centres unmarked) [Salmeterol] gave a Z-score of 0.4502. `CC[C@@H](C)C(=O)O[C@H]1[C@H](O)[C@H]2[C@@H](CN3C[C@@H](C)CC[C@H]3[C@@]2(C)O)[C@@H]2C[C@]34O[C@]5(O)[C@@H](OC(=O)[C@@](C)(O)CC)CC[C@@]3(C)[C@@H]5[C@@H](OC(C)=O)[C@@H](OC(C)=O)[C@H]4[C@@]21O` [Protoveratrine A] showed a Z-score of 1.895. For `CC(=O)Oc1ccc(C(c2ccc(OC(C)=O)cc2)c2ccccn2)cc1` [Bisacodyl], the Z-score was 0.477. In the case of `Nc1ccccc1S(N)(=O)=O` [2-Aminobenzenesulfonamide], the Z-score is reported as −1.9389. Work on `O=c1[nH]c(=O)n([C@H]2C[C@H](O)[C@@H](CO)O2)cc1I` [Idoxuridine] yielded a Z-score of −1.0734. For `C[C@@H]1[C@H](O)[C@@H](C)/C=C/C=C/CC/C=C/C=C/C=C/C=C/C(O[C@H]2O[C@H](C)[C@@H](O)[C@H](N)[C@@H]2O)CC2O[C@](O)(CC(O)C(O)CCC(O)CC(O)CC(O)CC(=O)O[C@H]1C)CC(O)C2C(=O)O` (some centres unmarked) [Nystatine], the Z-score was −0.6743. `O=c1ccc2cc(O[C@@H]3O[C@H](CO)[C@@H](O)[C@H](O)[C@H]3O)c(O)cc2o1` [Esculin Hydrate] gave a Z-score of −1.2808. With `O=C(CCCN1CCC(O)(c2ccc(Cl)cc2)CC1)c1ccc(F)cc1` [Haloperidol] the Z-score was −1.1776. In the case of `C[C@H](CCC(=O)O)[C@H]1CC[C@H]2[C@@H]3CC[C@@H]4C[C@H](O)CC[C@]4(C)[C@H]3CC[C@]12C` [Lithocholic acid], the Z-score is reported as 0.8022. Work on `CN(C)CCn1nnnc1SCC1=C(C(=O)O)N2C(=O)[C@@H](NC(=O)Cc3csc(N)n3)[C@H]2SC1` [Cefotiam hydrochloride] yielded a Z-score of −0.8453. For `COc1cc(C(=O)NCc2ccc(OCCN(C)C)cc2)cc(OC)c1OC` [Trimethobenzamide hydrochloride], the Z-score was 1.06. `CN(C)[C@@H]1C(O)=C(C(N)=O)C(=O)[C@@]2(O)C(O)=C3C(=O)c4c(O)ccc(Cl)c4[C@@H](O)[C@H]3C[C@@H]12` [Demeclocycline hydrochloride] was tested, and the Z-score was 1.787.
